Assay results published in patent publication US9795140B2, “Molecules having pesticidal utility, and intermediates, compositions, and processes, related thereto” (priority 2015, dated 2017).

Columns and labels:
Format in all cases: in vivo
[1] = test system: Beet Armyworm (Spodoptera exigua, LAPHEG); assay: Bioassay on Beet Armyworm (BAW), 128-well diet tray assay; settings: 168 h, 50 μg/cm^2 on artificial diet, second instar larvae, 25° C., five to seven days, average of eight wells, read-out: BAW % Control (or Mortality) rating
Method in brief: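 In a 128-well format, eight wells per compound received a surface dose of 50 μg/cm^2 on artificial diet. After drying, each well got one to five second instar larvae, held at 25° C. with 14:10 photoperiod. Mortality percentages after five to seven days were averaged.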

[2] = test system: Cabbage Looper (Trichoplusia ni, TRIPNI); assay: Bioassay on Cabbage Looper (CL), 128-well diet tray assay; settings: 168 h, 50 μg/cm^2 on artificial diet, second instar larvae, 25° C., five to seven days, average of eight wells, read-out: CL % Control (or Mortality) rating
Method in brief: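 Percent larval mortality, averaged across eight replicate wells, was scored after 5–7 days at 25 °C with a 14:10 photoperiod. Each well held 1 mL diet surface-treated at 50 μg/cm^2 with test molecule from a 90:10 acetone-water solution, then dried. Wells were infested with one to five second-instar cabbage loopers.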

[3] = test system: Green Peach Aphid (Myzus persicae, MYZUPE); assay: Bioassay on Green Peach Aphid (GPA), foliar spray on cabbage seedlings; settings: 72 h, 200 ppm spray on infested cabbage seedlings, three days, Abbott corrected % control, read-out: GPA % Control (or Mortality) rating
Description: Certain molecules disclosed in this document were tested against GPA using procedures described in the following example. In the reporting of the results, the “GPA & YFM Rating Table” was used (See Table Section).
Cabbage seedlings grown in 3-inch pots, with 2-3 small (3-5 cm) true leaves, were used as test substrate. The seedlings were infested with 20-50 GPA (wingless adult and nymph stages) one day prior to chemical application. Four pots with individual seedlings were used for each treatment. Test molecules (2 mg) were dissolved in 2 mL of acetone/methanol (1:1) solvent, forming stock solutions of 1000 ppm test molecule. The stock solutions were diluted 5× with 0.025% Tween 20 in water to obtain the solution at 200 ppm test molecule. A hand-held aspirator-type sprayer was used for spraying a solution to both sides of […] leaves until runoff. Reference plants (solvent check) were sprayed with the diluent only containing 20% by volume of acetone/methanol (1:1) solvent. Treated plants were held in a holding room for three days at approximately 25° C. and ambient relative humidity (RH) prior to grading. Evaluation was conducted by counting the number of live aphids per plant under a microscope. Percent control was measured using Abbott's correction formula (W. S. Abbott, “A Method of Computing the Effectiveness of an Insecticide” J. Econ. Entomol. 18 (1925), pp. 265-267) as follows. Corrected % Control=100*(X−Y)/X where X=No. of live aphids on solvent check plants and Y=No. of live aphids on treated plants. The results are indicated in the table entitled “Table ABC: Biological Results” (See Table Section).

[4] = test system: Yellow Fever Mosquito (Aedes aegypti, AEDSAE); assay: Bioassay on Yellow Fever Mosquito (YFM) larvae, 96-well plate; settings: about 1 day-old larvae, room temperature, 3 days, scored on mortality
Method in brief: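 Each well was scored for mortality after 3 days at room temperature under a non-evaporative lid. Test molecules came from DMSO masters (4000 ppm stock) diluted with water/acetone 90:10 and dispensed into six replicate plates, which were then infested with roughly 1-day-old larvae in liver-powder water.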

**Q.** Which results are given for CN(CC(F)(F)F)C(=O)c1cc(NC(=O)[C@H]2[C@H](c3cc(Cl)cc(Cl)c3)C2(Cl)Cl)ccc1Cl (relative stereo) [F59, trans-2-Chloro-5-(2,2-dichloro-3-(3,5-dichlorophenyl)cyclopropane-1-carboxamido)-N-methyl-N-(2,2,2-trifluoroethyl)benzamide]?
**A.** mortality at 50 µg/cm2 [1]: 50 to 100%; mortality at 50 µg/cm2 [2]: 50 to 100%; mortality at 200 ppm [3]: 0 to 80%; YFM % Control (or Mortality) rating [4]: A (80-100)

**Q.** Which mortality at 50 µg/cm2 [1] does the source give for CS(=O)(=O)CCNC(=O)c1cc(NC(=O)[C@H]2[C@H](c3cc(Cl)cc(Cl)c3)C2(Cl)Cl)ccc1Cl (relative stereo) [F75, trans-2-chloro-5-(2,2-dichloro-3-(3,5-dichlorophenyl)cyclopropane-1-carboxamido)-N-(2-(methylsulfonyl)ethyl)benzamide] here?
**A.** Its mortality at 50 µg/cm2 is 50 to 100%.

**Q.** And the mortality at 50 µg/cm2 [2]?
**A.** Its mortality at 50 µg/cm2 is 50 to 100%.

**Q.** And the mortality at 200 ppm [3]?
**A.** Its mortality at 200 ppm is 80 to 100%.

**Q.** And the “YFM % Control (or Mortality) rating” value [4]?
**A.** The value was “A (80-100)”.

**Q.** How did the mortality at 50 µg/cm2 [1] turn out when O=C(NCC(O)C(F)(F)F)c1cc(NC(=O)[C@H]2[C@H](c3cc(Cl)cc(Cl)c3)C2(Cl)Cl)ccc1Cl (relative stereo) [PF16, trans-2-Chloro-5-(2,2-dichloro-3-(3,5-dichlorophenyl)cyclopropane-1-carboxamido)-N-(3,3,3-trifluoro-2-hydroxypropyl)benzamide] was run?
**A.** Its mortality at 50 µg/cm2 is 50 to 100%.

**Q.** And the mortality at 50 µg/cm2 [2]?
**A.** The mortality at 50 µg/cm2 was 50 to 100%.

**Q.** What about the mortality at 200 ppm [3] of the same compound?
**A.** Its mortality at 200 ppm is 80 to 100%.

**Q.** And the “YFM % Control (or Mortality) rating” value [4]?
**A.** The value was “A (80-100)”.

**Q.** C[C@H](CSCC(F)(F)F)NC(=O)c1cc(NC(=O)C2C(c3cc(Cl)cc(Cl)c3)C2(Cl)Cl)ccc1Cl (stereo in doubt) [PF3, trans-2-Chloro-5-(2,2-dichloro-3-(3,5-dichlorophenyl)cyclopropane-1-carboxamido)-N—((R)-1-((2,2,2-trifluoroethyl)thio)propan-2-yl)benzamide] was tested. Which mortality at 50 µg/cm2 [1] did it give?
**A.** The mortality at 50 µg/cm2 was 50 to 100%.

**Q.** And the mortality at 50 µg/cm2 [2]?
**A.** The mortality at 50 µg/cm2 was 50 to 100%.

**Q.** And the mortality at 200 ppm [3]?
**A.** Its mortality at 200 ppm is 80 to 100%.

**Q.** And the “YFM % Control (or Mortality) rating” value [4]?
**A.** Its value is “B (More than 0-Less than 80)”.

**Q.** For C[C@H](CS(=O)(=O)CC(F)(F)F)NC(=O)c1cc(NC(=O)C2C(c3cc(Cl)cc(Cl)c3)C2(Cl)Cl)ccc1Cl (stereo in doubt) [PF6, trans-2-Chloro-5-(2,2-dichloro-3-(3,5-dichlorophenyl)cyclopropane-1-carboxamido)-N—((R)-1-((2,2,2-trifluoroethyl)sulfonyl)propan-2-yl)benzamide], which mortality at 50 µg/cm2 [1] is on record?
**A.** Its mortality at 50 µg/cm2 is 50 to 100%.

**Q.** And the mortality at 50 µg/cm2 [2]?
**A.** Its mortality at 50 µg/cm2 is 50 to 100%.

**Q.** What about the mortality at 200 ppm [3] of the same compound?
**A.** The mortality at 200 ppm was 0 to 80%.

**Q.** What about the “YFM % Control (or Mortality) rating” value [4] of the same compound?
**A.** Its value is “A (80-100)”.

**Q.** What does the source list for O=C(NOCC1CC1)c1cc(NC(=O)C2C(c3cc(Cl)c(Cl)c(Cl)c3)C2(Cl)Cl)ccc1Cl (stereo not drawn) [F15, trans-N-2-Chloro-N-(cyclopropylmethoxy)-5-(2,2-dichloro-3-(3,4,5-trichlorophenyl)cyclopropane-1-carboxamido)benzamide]?
**A.** mortality at 50 µg/cm2 [1]: 50 to 100%; mortality at 50 µg/cm2 [2]: 50 to 100%; mortality at 200 ppm [3]: 80 to 100%; YFM % Control (or Mortality) rating [4]: A (80-100)

**Q.** What does the source list for O=C(NOCC1CC1)c1cc(NC(=O)C2C(c3cc(Cl)cc(Cl)c3)C2(Cl)Cl)ccc1Cl (stereo not drawn) [F16, trans-N-2-Chloro-N-(cyclopropylmethoxy)-5-(2,2-dichloro-3-(3,5-dichlorophenyl)cyclopropane-1-carboxamido)benzamide]?
**A.** mortality at 50 µg/cm2 [1]: 50 to 100%; mortality at 50 µg/cm2 [2]: 50 to 100%; mortality at 200 ppm [3]: 0 to 80%; YFM % Control (or Mortality) rating [4]: A (80-100)

**Q.** With O=C(NOCc1ccc(F)cc1)c1cc(NC(=O)C2C(c3cc(Cl)cc(Cl)c3)C2(Cl)Cl)ccc1Cl (stereo not drawn) [F17, trans-N-2-Chloro-5-(2,2-dichloro-3-(3,5-dichlorophenyl)cyclopropane-1-carboxamido)-N-((4-fluorobenzyl)oxy)benzamide] as the compound, how does the mortality at 50 µg/cm2 [1] read?
**A.** The mortality at 50 µg/cm2 was 50 to 100%.

**Q.** What about the mortality at 50 µg/cm2 [2] of the same compound?
**A.** The mortality at 50 µg/cm2 was 50 to 100%.

**Q.** And the mortality at 200 ppm [3]?
**A.** The mortality at 200 ppm was 0 to 80%.

**Q.** What about the “YFM % Control (or Mortality) rating” value [4] of the same compound?
**A.** Its value is “A (80-100)”.

**Q.** Which results are given for O=C(NCCc1ccc(F)cc1)c1cc(NC(=O)C2C(c3cc(Cl)cc(Cl)c3)C2(Cl)Cl)ccc1Cl (stereo not drawn) [F19, trans-N-2-Chloro-5-(2,2-dichloro-3-(3,5-dichlorophenyl)cyclopropane-1-carboxamido)-N-(4-fluorophenethyl)benzamide]?
**A.** mortality at 50 µg/cm2 [1]: 50 to 100%; mortality at 50 µg/cm2 [2]: 50 to 100%; mortality at 200 ppm [3]: 0 to 80%; YFM % Control (or Mortality) rating [4]: A (80-100)

**Q.** How did the mortality at 50 µg/cm2 [1] turn out when O=C(NCCc1ccc(F)cc1)c1cc(NC(=O)C2C(c3cc(Cl)c(Cl)c(Cl)c3)C2(Cl)Cl)ccc1Cl (stereo not drawn) [F20, trans-N-2-Chloro-5-(2,2-dichloro-3-(3,4,5-trichlorophenyl)cyclopropane-1-carboxamido)-N-(4-fluorophenethyl)benzamide] was run?
**A.** Its mortality at 50 µg/cm2 is 50 to 100%.

**Q.** What about the mortality at 50 µg/cm2 [2] of the same compound?
**A.** The mortality at 50 µg/cm2 was 50 to 100%.

**Q.** And the mortality at 200 ppm [3]?
**A.** Its mortality at 200 ppm is 0 to 80%.

**Q.** And the “YFM % Control (or Mortality) rating” value [4]?
**A.** The value was “A (80-100)”.

**Q.** For O=C(NOCC1CC1(F)F)c1cc(NC(=O)C2C(c3cc(Cl)cc(Cl)c3)C2(Cl)Cl)ccc1Cl (stereo not drawn) [F21, trans-N-2-Chloro-5-(2,2-dichloro-3-(3,5-dichlorophenyl)cyclopropane-1-carboxamido)-N-((2,2-difluorocyclopropyl)methoxy)benzamide], which mortality at 50 µg/cm2 [1] is on record?
**A.** The mortality at 50 µg/cm2 was 50 to 100%.

**Q.** And the mortality at 50 µg/cm2 [2]?
**A.** The mortality at 50 µg/cm2 was 50 to 100%.

**Q.** And the mortality at 200 ppm [3]?
**A.** Its mortality at 200 ppm is 0 to 80%.

**Q.** What about the “YFM % Control (or Mortality) rating” value [4] of the same compound?
**A.** Its value is “B (More than 0-Less than 80)”.

**Q.** With O=C(NOCC1CC1(F)F)c1cc(NC(=O)C2C(c3ccc(Cl)c(Cl)c3)C2(Cl)Cl)ccc1Cl (stereo not drawn) [F22, trans-N-2-Chloro-5-(2,2-dichloro-3-(3,4-dichlorophenyl)cyclopropane-1-carboxamido)-N-((2,2-difluorocyclopropyl)methoxy)benzamide] as the compound, how does the mortality at 50 µg/cm2 [1] read?
**A.** The mortality at 50 µg/cm2 was 50 to 100%.

**Q.** What about the mortality at 50 µg/cm2 [2] of the same compound?
**A.** The mortality at 50 µg/cm2 was 50 to 100%.

**Q.** And the mortality at 200 ppm [3]?
**A.** Its mortality at 200 ppm is 80 to 100%.

**Q.** And the “YFM % Control (or Mortality) rating” value [4]?
**A.** Its value is “B (More than 0-Less than 80)”.

**Q.** Which results are given for O=C(NOCC1CC1(F)F)c1cc(NC(=O)C2C(c3cc(Cl)c(Cl)c(Cl)c3)C2(Cl)Cl)ccc1Cl (stereo not drawn) [F23, trans-N-2-Chloro-5-(2,2-dichloro-3-(3,4,5-trichlorophenyl)cyclopropane-1-carboxamido)-N-((2,2-difluorocyclopropyl)methoxy)benzamide]?
**A.** mortality at 50 µg/cm2 [1]: 50 to 100%; mortality at 50 µg/cm2 [2]: 50 to 100%; mortality at 200 ppm [3]: 80 to 100%; YFM % Control (or Mortality) rating [4]: B (More than 0-Less than 80)

**Q.** With CC(C)(C)c1ccc(CNC(=O)c2cc(NC(=O)C3C(c4cc(Cl)cc(Cl)c4)C3(Cl)Cl)ccc2Cl)cc1 (stereo not drawn) [F36, trans-N-(4-(tert-Butylbenzyl)-2-chloro-5-(2,2-dichloro-3-(3,5-dichlorophenyl)cyclopropane-1-carboxamido)benzamide] as the compound, how does the mortality at 50 µg/cm2 [1] read?
**A.** The mortality at 50 µg/cm2 was 0%.

**Q.** And the mortality at 50 µg/cm2 [2]?
**A.** The mortality at 50 µg/cm2 was 0%.

**Q.** What about the mortality at 200 ppm [3] of the same compound?
**A.** Its mortality at 200 ppm is 0%.

**Q.** What about the “YFM % Control (or Mortality) rating” value [4] of the same compound?
**A.** The value was “B (More than 0-Less than 80)”.
